Experimental data taken from patent publication US20210252159A1, “CONJUGATES OF CARTILAGE-HOMING PEPTIDES” (priority 2018, published 2021).
Where two headings read alike, the source gives them in different places.

Columns and labels:
CIA rats [1] = assay type: in vivo; details: 0.2 mg/kg on study day 0 and day 1
Method: A study was conducted in CIA rats to address the following: 1) functionality and duration of effect for peptide(SEQ ID NO: 105)-carbamate-Dex at 0.2 mg/kg as compared to Dex alone at the same dose; 2) functionality and duration of effect for peptide(SEQ ID NO: 105)-DMA-Dex at 0.05 mg/kg as compared to Dex alone at the same dose; 3) systemic markers of Dex exposure in rats treated with each PDC and Dex at their respective doses (FIG. 16B-FIG. 16G).
CIA was induced as described above in EXAMPLE 21. Rats were enrolled in the study following onset of arthritis in at least one ankle and randomly assigned into one of five treatment groups (vehicle; peptide-carbamate 0.2 mg/kg; Dex 0.2 mg/kg; peptide-DMA conjugate 0.05 mg/kg; Dex 0.05 mg/kg) with 5 rats per group. Treatment was administered on study day 0 and study day 1 and rats were euthanized on study day 7. The primary read-out in this cohort was change in ankle diameter during and after treatment, as a measure of functionality and duration of effect. […] The primary read-out for this cohort was measures of systemic exposure to Dex which included thymus weight, spleen weight, total white blood cell counts, lymphocyte counts, and change in body weight.

[2] = Systemic markers for glucocorticoid exposure in normal rats; assay type: in vivo; details: normal female Lewis rats
Method: In order to evaluate markers of systemic dexamethasone exposure in normal rats, time points were selected to simulate drug administration for studies (e.g., dosing on days 10 and 11, euthanize on day 12 or dosing on days 11-14 and euthanize on day 14). […] Rats were euthanized 24 hours after the second dose, or 5 hours after the fourth dose. Body weight was measured daily. At euthanasia, liver, spleen, thymus, and kidney weights were recorded and blood was collected for CBC and serum chemistry analysis. To establish the CIA model, female Lewis rats were inoculated with an intradermal injection of bovine collagen II on day 0 and a challenge dose was administered on day 7. Ankle and knee joint diameters were measured daily. Rats were euthanized on day 10, day 12 and day 14 at which time liver, spleen, thymus, and kidney weights were recorded and blood was collected for complete blood count (CBC)/blood chemistry analysis.

[3] = IL-1β challenge rat model, dose-ranging study: CBC, organ weights, tolerability; assay type: in vivo, rats
Method: IL-6 was measured in knee lavage fluid using a Luminex assay and levels were normalized to total protein in the lavage fluid (FIG. 24). Assessment of the PD inflammatory marker IL-6 in the knee joints of rats challenged with IL-1β was performed. Terminal synovial fluid was collected from all animals and analyzed by Luminex 200 for IL-6 cytokine concentrations using EMD Milliplex MAP Rat Cytokine/Chemokine Magnetic Panel ([…]-65K). […] Doses are listed as nmol/kg The masses of these doses are given below in TABLE 16. Two hours and forty-five minutes (i.e., 2.75 hrs) after administration of the test agents, animals were gently heated and blood was drawn from the tail vein for CBC analysis. Animals were then anesthetized with inhaled isoflurane and injected with 30 ng of IL-1β into the right knee (except for no IL-1β group). Four hours after administration of IL-1β (seven hours after administration of test agent) the animals were euthanized. Blood was drawn for a second CBC analysis and the right knee was lavaged for detection of IL-6 in the lavage fluid using a Luminex assay. Thymus and spleen were harvested and their organ weights determined.
In the same animals for which IL-6 secretion was measured, CBC data (e.g., lymphocyte counts) were also analyzed (FIG. 25) at an early time-point, 2.75 hrs post administration of the test article (FIG. 25A), and at euthanasia 7 hrs post administration (FIG. 25B). All treatments were administered as described above for the measurement of IL-6 secretion.
All treatments and test articles were administered as described above, except for an additional treatment group that received 510 nmol/kg of the peptide-drug conjugate peptide(SEQ ID NO: 105)-DMA-dCIC.

IL-6 = details: 30 or 3 μg, 4 h
Method: After 4 h, IL-6 levels in synovial fluid of the same knee were measured by Luminex and normalized to protein content of the knee lavage.

CIA rats [4] = test system: CIA rats
Method: Arthritis was induced in 9-week-old female Lewis rats (Envigo or Charles River Laboratories) by intradermal injection while anesthetized of 400 ug bovine type II collagen (Chondrex Inc, Redmond Wash.) in 2 adjacent 200 ul (1 mg/ml) doses on day 0. Collagen is prepared for injection by dissolving at 2 mg/ml in 0.01N glacial acetic acid in sterile water and rocking at 4° C. overnight then emulsifying in Freund's incomplete adjuvant (IFA, Sigma Aldrich). To emulsify, equal volumes of collagen solution and IFA are drawn up into separate syringes, which are joined by a 3-way stopcock. While on ice, the collagen and IFA are mixed by pressing between the two syringes rapidly for 10 minutes. Quality of the emulsification is tested after 10 minutes of mixing by dropping a small amount of mixture in water. A properly emulsified solution will remain as a discrete droplet and not disperse in the water. On day 7, rats are challenged with a second intradermal injection of 100 ug of collagen in 100 ul, 1 mg/ml, collagen in IFA solution prepared fresh. Body weight and ankle diameter measurements are recorded daily from day 7 through the end of the study. Ankle diameter was measure by a single researcher using a Fowler Digitrix 2 micrometer. Three measurements of each ankle were taken of the lateral dimension at the tarsus of lightly anesthetized rats. The reported ankle diameter measurement is the mean of the three measurements.
Arthritis was induced as described in four cohorts of 9-week-old female Lewis rats. Rats were randomly placed in treatment groups, balancing compound and dose groups across cohorts. […] Rats were dosed by tail vein injection on days 11 and 12 and euthanized on day 13 by CO2 asphyxiation. Immediately after cessation of respiratory movement, blood was collected by cardiac puncture, synovial fluid was collected from both knees, one hind limb was fixed in formalin and the alternate ankle was frozen on dry ice. Thymus, spleen, liver, and kidney weights were recorded.
CIA Response study design.
The aim of the study was to test the 4 conjugates with various linkers at two different doses in vivo in CIA rats to assess the following: ability to deliver sufficient dexamethasone to the joint to show functionality and potential therapeutic effect in the disease model.
CIA was induced in female Lewis rats (as described above, see EXAMPLE 21). Body weight and ankle joint diameters were measured on day 0 and then daily from day 7 until euthanasia. […] At euthanasia, synovial fluid was collected from both knees, one hind limb was fixed in formalin and the alternate ankle was frozen on dry ice. Thymus, spleen, liver, and kidney weights were recorded. Blood samples were submitted for CBC/Chemistry analysis, and the remaining plasma was frozen.

[5] = 1 mg/kg/day for 2 days and 4 days
[6] = 1 mg/kg/day for 2 days or 4 days, vs vehicle and CIA rats

With Dexamethasone sodium phosphate [DexSP] the “ankle inflammation / ankle diameter as compared to vehicle” value (CIA rats [1]) was “highly effective in reducing ankle diameter to baseline levels”, the other liver enzymes ([2]; 1 mg/kg/day) was “no significant changes” and the “red blood cell (RBC) count, hematocrit, neutrophil, monocyte or eosinophil counts” value ([2]; 1 mg/kg/day) was “no significant changes”. The absolute lymphocyte count [2, 5] was “decreased”, the “total white blood cell (WBC) count” value [2, 5] was “decreased” and the Body weight ([2]; 1 mg/kg/day for 2 days or 4 days) was “declined”. For the same substance, the spleen weight [2, 6] was “significantly decreased”, the thymus weight [2, 6] was “significantly decreased” and the “Nucleated RBCs” value ([2]; 4 doses of 1 mg/kg/day) was “detected in four of the five rats”. The “monocytes (CBC)” value ([3]; 2.75 hours post-treatment) was “dose dependent decrease”, the “Lymphocyte counts as compared to vehicle control” value ([3]; 2.75 hrs post administration, Dex both doses, dCIC IA or IV) was “substantial reduction in lymphocyte counts” and the “Lymphocyte counts at euthanasia” value ([3]; 7 hours post administration, all dose levels) was “lower at 7 hours as compared to 2.75 hours”. For the same substance, the “IL-6 secretion in synovial fluid” value (IL-6; administered IA (co-injected with IL-1b)) was “no decrease”, the “IL-6 secretion in synovial fluid” value (IL-6; administered IV) was “some decrease” and the spleen weight (CIA rats [4]; 0.2 mg/kg and 0.5 mg/kg dose) was “reduction”. For the same substance, the thymus weight (CIA rats [4]; 0.2 mg/kg and 0.5 mg/kg dose) was “reduction”, the total body weight (CIA rats [4]; 0.2 mg/kg and 0.5 mg/kg dose) was “reduction” and the “change in median ankle diameter between day 11 and day 13 as compared to vehicle” value (CIA rats [4]; 0.2 mg/kg dose) was “did not reach statistical significance”. The “reduction in thymus weight as compared to vehicle” value (CIA rats [4]; 0.2 mg/kg dose groups) was “statistically significant”.
